≈ marks a conversion by molar mass, not a printed value. Read-outs that look alike come from different tables or passages of the source.

This is an account of results in patent US20140363530A1, “COMPOSITION COMPRISING THE EXTRACT OF PINE TREE LEAF OR THE COMPOUNDS ISOLATED THEREFROM FOR THE PREVENTION AND TREATMENT OF CANCER DISEASE BY INHIBITING HPV VIRUS AND THE USES THEREBY” (priority 2012, published 2014).

For experiment [1], the system named is HPV16 PVs. Briefly: Virus inhibition test (in vitro), SEAP activity of 293TT cells infected with HPV pseudovirion. The experiment is classed as cell-based. The conditions noted are these: Human papillomavirus 16, read-out: inhibitory activity from HPV16 PVs. Here is the method:
Prior to in vitro antiviral assay, 5×10^3 of 293TT cell was seeded on 96-well plate and incubated at 37° C. for 16 hours in 5% CO2 atmosphere. The culture media was removed and each extract was diluted to the concentration of 100 μg/ml or 50 μg/ml to distribute into each cell at the dose of 100 μl/cell. After treating with the extract for 16 hours, the culture media was removed and the cell was washed with PBS twice. The cell was infected by 106RLU/ml of HPV PVs at the dose of 100 μl/cell and incubated for 48 hours at 37° C. in 5% CO2 atmosphere. To determine the viral activity, the supernatant of the cell culture was used for determine the activity of secreted alkaline phosphatase (SEAP) using by Great EscAPE™ SEAP Chemiluminescence Kit (631738, Clontech, CA, USA). To determine the SEAP activity, relative light units (RLU) value was obtained using by Luminescence coulter (Micro beta triLux 1450, PerkinElmer, CT, USA) and the RLU values of the cell treated with the extract and untreated with the extract, were compared with each other. The decrease of SEAP activity was regarded as the inhibition effect against HPV PVs.
To determine the inhibitory effect on luciferase-comprising HPV virus contagion of the test samples prepared in Examples, following test was performed according to the method disclosed in the literature (Shaneyfelt et al., Virology Journal, 3:68, 2006, 1-11; Roden et al., J. Virol., 70, 1996, 5875-5883; Unckell et al., J. Virol., 71, 1997, 2934-2939; Touze et al., Nucleic Acids Research, 26, 1998, 1317-1323; Selinka et al., J. Virol., 77, 2003, 12961-12967; Klasse et al., Journal of General Virology, 83, 2002, 2091-2108)
5×10^3293TT cell was seeded on 96-well plate and incubate for 16 hours. 50 μg of test sample was mixed with the culture media in the concentration of 100 ug/ml and incubated for 16 hours. The media was washed with 100 μl of PBS twice and the cell was infected with 10^6RLU/ml of HPV pseudovirion at the dose of 100 μl/cell to incubate at 37° C., for 48 hours in 5% CO2 atmosphere.
5× lysis buffer in Great EscAPE™ SEAP Chemiluminescence Kit (631738, Clontech, CA, USA) was made to 1× and both of 45 μl of 1× lysis buffer and 15 μl of cell culture medium were added to 96-well plate (3912, Costar, NY, USA). 60 μl of the substrate in Great EscAPE™ SEAP Chemiluminescence kit was added thereto and the relative light units (RLU) value was obtained using by Luminescence coulter (Micro beta triLux 1450, PerkinElmer, CT, USA). The RLU values of the cell treated with the extract and untreated with the extract, were compared with each other and the decrease of SEAP activity was regarded as the inhibition effect against HPV PVs.

Experiment [2] relates to A-549 (human adenocarcinoma of lung). In words: SRB cytotoxicity test, A-549. In kind it is cell-based. The settings on record: Homo sapiens, read-out: Cytotoxicity IC50, A-549. On the procedure:
(§1) To determine the cytotoxicity against human tumor cell line of the test samples prepared in Examples, following sulforhodamin B (SRB) bioassy test was performed according to the method disclosed in the literature (Skehan, P., et al., J. Natl. Cancer Inst., 82, 1990, 1107-1112).
(§2) Various human tumor cell lines, i.e., A-549 (human adenocarcinoma of lung, NCI), SK-OV-3 (human ovarian tumor, NCI), SK-MEL-2 (human malignant melanoma, NCI), HCT15 (human colon adenocarcinoma, NCI), MES-SA (human uterine carcinoma, NCI) and MES-SA/DX5 (multidrug resistant carcinoma subline of MES-SA, NCI) were used in the test.
(§3) The subcultured cell lines were detached from the surface of wall using by trypsin-EDTA solution and adjusted to various concentration of cell lines, i.e., 5×10^3 cells/well (A-549, HCT15), 1×10^4 cells/well (SK-MEL-2), 5×10^3 cells/well (SK-OV-3) in 96-well flat bottom microplate. The inoculated cell lines were incubated in CO2 incubator (MCO-20AIC, SANYO Electric Co., LTd.) to be attached on the bottom of incubator and the culture media was removed with aspirator. 6 logarithmic concentrations of the diluted test samples were added to each well containing cell line at 100 μl/well in a three fold dilution manner and the cell was incubated for 48 hours. The culture media in each well was removed and 100μ of 10% trichloroacetic acid was added thereto to be left alone at 4° C. for 1 hour and to fix the cells to the bottom of the plates. […] The cell plates were shaked with titer plate shaker (KOMA Orbital Shaker KE011, KOMABIOTech) for 10 mins to exude the staining solution and to determine the absorbance at 520 nm using by microplate spectrophotometer (Sunrise, TECAN).
Background: The SRB assay estimates cell density from bound dye.

Experiment [3] deals with SK-OV-3 (human ovarian tumor). In words: SRB cytotoxicity test, SK-OV-3. The experiment is classed as cell-based. The conditions noted are these: Homo sapiens, read-out: Cytotoxicity IC50, SK-OV-3. On the procedure:
as §1, §2, §3

Experiment [4] concerns SK-MEL-2 (human malignant melanoma). Briefly: SRB cytotoxicity test, SK-MEL-2. The settings on record: Homo sapiens, read-out: Cytotoxicity IC50, SK-MEL-2. In kind it is cell-based. On the procedure: as §1, §2, §3
Experiment [5] relates to HCT15 (human colon adenocarcinoma). Briefly: SRB cytotoxicity test, HCT15. In kind it is cell-based. The conditions noted are these: Homo sapiens, HCT-15, 48 h. Here is the method: as §1, §2, §3
The subject of experiment [6] is MES-SA (human uterine carcinoma). In words: SRB cytotoxicity test, MES-SA. The experiment is classed as cell-based. The settings on record: Homo sapiens, MES-SA, 48 h. Here is the method: as §1, §2, §3
The test system of experiment [7] is MES-SA/DX5 (multidrug resistant carcinoma subline of MES-SA). In words: SRB cytotoxicity test, MES-SA/DX5. The conditions noted are these: Homo sapiens, MES-SA/Dx5, 48 h, read-out: Cytotoxicity IC50, MES-SA/DX5. The experiment is classed as cell-based, human. Here is the method: as §1, §2, §3
In experiment [8] the test system is HPV16 PVs. Briefly: Virus inhibition test (in vitro), SEAP activity of 293TT cells infected with HPV pseudovirion. The conditions noted are these: Human papillomavirus 16, read-out: inhibitory activity on HPV16 PVs. The experiment is classed as cell-based.
For a further experiment, the system named is HCT15/CL02. Briefly: SRB cytotoxicity test, HCT15/CL02. The experiment is classed as cell-based, human. The settings on record: Homo sapiens, HCT-15; Table 4, 48 hours. On the procedure: To determine the cytotoxicity against human tumor cell line of the test samples prepared in Examples, following sulforhodamin B (SRB) bioassy test was performed according to the method disclosed in the literature (Skehan, P., et al., J. Natl. […] The inoculated cell lines were incubated in CO2 incubator (MCO-20AIC, SANYO Electric Co., LTd.) to be attached on the bottom of incubator and the culture media was removed with aspirator. 6 logarithmic concentrations of the diluted test samples were added to each well containing cell line at 100 μl/well in a three fold dilution manner and the cell was incubated for 48 hours. […] The cell plates were shaked with titer plate shaker (KOMA Orbital Shaker KE011, KOMABIOTech) for 10 mins to exude the staining solution and to determine the absorbance at 520 nm using by microplate spectrophotometer (Sunrise, TECAN).

As for `CC(C)c1ccc2c(c1)CC[C@H]1[C@](C)(C(=O)O)CCC[C@]21C` [compound (i), dehydroabietic acid], the inhibition at 50 µg/mL with HPV16 PVs [1] was in the range of 70 to 80%. For the same molecule, the IC50 in experiment [2] (A549, 48 h) worked out at 13.4 mg/L (≈ 44.7 µM); in experiment [3] (SK-OV-3, 48 h) it was 17.3 mg/L (≈ 57.5 µM); in experiment [4] (SK-MEL-2, 48 h) it was 13 mg/L (≈ 43.3 µM); in experiment [5] (read-out: Cytotoxicity IC50, HCT15), 15.7 mg/L (≈ 52.2 µM); in experiment [6] (read-out: Cytotoxicity IC50, MES-SA), 10.3 mg/L (≈ 34.4 µM); in [7], 12 mg/L (≈ 40 µM). Also, the inhibition at 5 µg/mL with HPV16 PVs [8] was roughly 50%.

Regarding `C=C[C@]1(C)C=C2CC[C@@H]3[C@](C)(CCC[C@@]3(C)C(=O)O)[C@H]2CC1` [compound (j), sandaracopimaric acid], in the experiment on HPV16 PVs [1], the inhibition at 50 µg/mL is 70 to 80%. For the same molecule, the IC50 in experiment [2] (A549, Table 3, 48 hours) was found to be 13.6 mg/L (≈ 45.1 µM); in experiment [3] (SK-OV-3, Table 3, 48 hours) it was 12.1 mg/L (≈ 40.1 µM); in experiment [4] (SK-MEL-2, Table 3, 48 hours), 11.2 mg/L (≈ 36.9 µM); in experiment [5] (Table 3, 48 hours, read-out: Cytotoxicity IC50, HCT15), 13.6 mg/L (≈ 44.9 µM); in [6] (Table 3, 48 hours, read-out: Cytotoxicity IC50, MES-SA), 10.4 mg/L (≈ 34.6 µM); in experiment [7], 11.1 mg/L (≈ 36.6 µM). Besides, the inhibition at 5 µg/mL in the experiment on HPV16 PVs [8] was roughly 50%.

`COc1cccc2c1C(=O)c1c(O)c3c(c(O)c1C2=O)C[C@@](O)(C(=O)CO)C[C@@H]3O[C@H]1C[C@H](N)[C@H](O)[C@H](C)O1` [doxorubicin, reference compound]: the IC50 in experiment [2] (A549, 48 h) came out at 0.0072 mg/L (≈ 0.0132 µM); in [3] (SK-OV-3, 48 h) it was 0.0104 mg/L (≈ 0.0191 µM); in [4] (SK-MEL-2, 48 h), 0.0012 mg/L (≈ 0.00221 µM); in experiment [5] (read-out: Cytotoxicity IC50, HCT15, Table 3, 48 hours), 0.0833 mg/L (≈ 0.153 µM); in experiment [5] (read-out: Cytotoxicity IC50, HCT15, Table 4, 48 hours), 0.016 mg/L (≈ 0.0294 µM); in [6] (read-out: Cytotoxicity IC50, MES-SA, Table 1, extract and solvent fractions, 48 hours), 0.0002 mg/L (≈ 0.000368 µM). In addition, the IC50 in experiment [6] (read-out: Cytotoxicity IC50, MES-SA, Table 2, purified extracts, 48 hours) was found to be 0.0002 mg/L (≈ 0.000368 µM); in [6] (read-out: Cytotoxicity IC50, MES-SA, Table 3, 48 hours), 0.0051 mg/L (≈ 0.00938 µM); in [6] (read-out: Cytotoxicity IC50, MES-SA, Table 4, 48 hours), 0.0051 mg/L (≈ 0.00938 µM); in experiment [7] (Table 1, extract and solvent fractions, 48 hours), 0.412 mg/L (≈ 0.758 µM); in experiment [7] (Table 2, purified extracts, 48 hours) it was 0.412 mg/L (≈ 0.758 µM); in experiment [7] (Table 3, 48 hours), 1.45 mg/L (≈ 2.67 µM). The IC50 in [7] (Table 4, 48 hours) was determined as 1.45 mg/L (≈ 2.67 µM); in the experiment with HCT15/CL02, 2.11 mg/L (≈ 3.88 µM).
